Patent publication US5187166A, “Azabicyclo derivatives and their use as antiemetics” (Nisshin Flour Milling Co., Ltd., priority 1990, dated 1993)

Tested on: 5-HT3 receptors
Assay: antagonism of the von Bezold-Jarisch reflex (bradycardia) induced by 5-HT in the anaesthetised rat
Assay type: in vivo
Conditions: i.v., hydrochloride salt, 5 min before 5-HT 30 μg/kg, urethane-anaesthetised rats
Description: Temporary bradycardia is induced by administration of 5-HT (serotonin) to anaesthetised rats via jugular vein (von Bezold Jarisch Reflex) (A. S. Paintal, Physiol. Rev., 53, 159-210 (1973)).
The compounds of the present invention were evaluated for antagonism of the von Bezold-Jarisch reflex induced by 5-HT in the anaesthetised rat according to the following method.
Rats were anaesthetised with urethane (1 g/kg, intraperitoneally) and blood pressure and heart rate recorded from left femoral artery. Percent inhibition was calculated from bradycardia induced by 5-HT (30 μg/kg) given 5 minutes following intrajugular administration of a compound of the invention, taking the bradycardia induced by the intrajugular administration of 5-HT. The compounds of the present invention were tested in the form of their hydrochloride salts.

Row | Structure (SMILES) | Percent Inhibition (0.1 μg/kg) [%] | Percent Inhibition (1.0 μg/kg) [%] | Percent Inhibition (10 μg/kg) [%]
1 | CN1[C@@H]2CSC[C@H]1C[C@@H](OC(=O)c1c[nH]c3ccccc13)C2 [Example 1, (Endo-9-methyl-3-thia-9-azabicyclo[3.3.1]non-7-yl) 1H-indole-3-carboxylate] | 51 | 85 | –
2 | CN1[C@@H]2COC[C@H]1C[C@@H](OC(=O)c1c[nH]c3ccccc13)C2 [Example 2, (Endo-9-methyl-3-oxa-9-azabicyclo[3.3.1]non-7-yl) 1H-indole-3-carboxylate] | 54 | 93 | –
3 | CN1[C@@H]2CSC[C@H]1C[C@@H](OC(=O)c1nn(C)c3ccccc13)C2 [Example 3, (Endo-9-methyl-3-thia-9-azabicyclo[3.3.1]non-7-yl) 1-methylindazole-3-carboxylate] | 43 | 67 | –
4 | CN1[C@@H]2COC[C@H]1C[C@@H](OC(=O)c1nn(C)c3ccccc13)C2 [Example 4, (Endo-9-methyl-3-oxa-9-azabicyclo[3.3.1]non-7-yl) 1-methylindazole-3-carboxylate] | 59 | 80 | –
5 | COc1cc(N)c(Cl)cc1C(=O)O[C@H]1C[C@H]2CSC[C@@H](C1)N2C [Example 5, (Endo-9-methyl-3-thia-9-azabicyclo[3.3.1]non-7-yl) 4-amino-5-chloro-2-methoxy benzoate] | – | – | 58
6 | CN1[C@@H]2COC[C@H]1C[C@@H](NC(=O)c1c[nH]c3ccccc13)C2 [Example 7, Endo-9-methyl-3-oxa-9-azabicyclo[3.3.1]non-7-yl 1H-indole-3-carboxamide] | – | 36 | 72
7 | CN1C[C@H]2C[C@@H](OC(=O)c3c[nH]c4ccccc34)C[C@@H](C1)N2C [Example 9, (Endo-3,9-dimethyl-3,9-diazabicyclo[3.3.1]non-7-yl) 1H-indole-3-carboxylate] | 28 | 58 | 91
8 | CN1C[C@H]2C[C@@H](NC(=O)c3c[nH]c4ccccc34)C[C@@H](C1)N2C [Example 11, Endo-3,9-dimethyl-3,9-diazabicyclo[3.3.1]non-7-yl 1H-indole-3-carboxamide] | – | 39 | 79
9 | CN1C[C@H]2C[C@@H](NC(=O)c3nn(C)c4ccccc34)C[C@@H](C1)N2C [Example 12, Endo-3,9-dimethyl-3,9-diazabicyclo[3.3.1]non-7-yl 1-methylindazole-3-carboxamide] | 25 | 71 | –
10 | CN1C[C@H]2C[C@@H](NC(=O)c3n[nH]c4ccccc34)C[C@@H](C1)N2C [Example 13] | – | 28 | 95
11 | CCn1nc(C(=O)N[C@@H]2C[C@@H]3CN(C)C[C@H](C2)N3C)c2ccccc21 [Example 15, Endo-3,9-dimethyl-3,9-diazabicyclo[3.3.1]non-7-yl 1-ethylindazole-3-carboxamide] | 42 | 91 | –
12 | CC(C)n1nc(C(=O)N[C@@H]2C[C@@H]3CN(C)C[C@H](C2)N3C)c2ccccc21 [Example 16, Endo-3,9-dimethyl-3,9-diazabicyclo[3.3.1]non-7-yl 1-(2-propyl)indazole-3-carboxamide] | 59 | – | –
13 | CN1C[C@H]2C[C@@H](NC(=O)c3nn(Cc4ccccc4)c4ccccc34)C[C@@H](C1)N2C [Example 17, Endo-3,9-dimethyl-3,9-diazabicyclo[3.3.1]non-7-yl 1-benzylindazole-3-carboxamide] | 43 | 91 | –
14 | CCCCCCCCn1nc(C(=O)N[C@@H]2C[C@@H]3CN(C)C[C@H](C2)N3C)c2ccccc21 [Example 18, Endo-3,9-dimethyl-3,9-diazabicyclo[3.3.1]non-7-yl 1-(n-octyl)indazole-3-carboxamide] | – | 15 | –
15 | CN(C)CCn1nc(C(=O)N[C@@H]2C[C@@H]3CN(C)C[C@H](C2)N3C)c2ccccc21 [Example 19, Endo-3,9-dimethyl-3,9-diazabicyclo[3.3.1]non-7-yl 1-[2-(dimethylamino)ethyl]indazole-3-carboxamide] | – | 10 | –
16 | COc1cc(N)c(Cl)cc1C(=O)N[C@@H]1C[C@@H]2CN(C)C[C@H](C1)N2C [Example 22, Endo-3,9-dimethyl-3,9-diazabicyclo[3.3.1]non-7-yl 4-amino-5-chloro-2-methoxyphenylcarboxyamide] | – | 43 | 89
